Experimental data published in patent US10202378B2, “Therapeutic compounds and uses thereof” (GENENTECH, INC., priority 2015, dated 2019).
pIC50: −log10 of the molar value.

How the values were obtained:
[1] = target: TAF1-BD2 (Homo sapiens, UniProt P21675); experiment: TAF1-BD2 TR-FRET Binding Assay; settings: read-out: TAF1-BD2 HTRF IC50
[2] = target: TAF1-BD1 (Homo sapiens, UniProt P21675); experiment: TAF1-BD1 TR-FRET Binding Assay; settings: read-out: TAF1-BD1 HTRF IC50

Row | Compound | pIC50 [1] | pIC50 [2]
1 | Cc1[nH]c2c(=O)n(C)cc(C#CC(C)(C)O)c2c1C(=O)OCc1ccccn1 [Example 115, 2-pyridylmethyl 4-(3-hydroxy-3-methyl-but-1-ynyl)-2,6-dimethyl-7-oxo-1H-pyrrolo[2,3-c]pyridine-3-carboxylate] | 7.47 | 6.55
2 | CCOC(=O)c1c(C)[nH]c2c(=O)n(C)cc(C#CC(C)(C)C)c12 [Example 76, ethyl 4-(3,3-dimethylbut-1-ynyl)-2,6-dimethyl-7-oxo-1H-pyrrolo[2,3-c]pyridine-3-carboxylate] | 6.11 | 6.25
3 | Cc1[nH]c2c(=O)n(C)cc(C#CC(C)(O)C(C)C)c2c1C(=O)OCC(C)C (centres unmarked) [Example 128, isobutyl 4-(3-hydroxy-3,4-dimethyl-pent-1-ynyl)-2,6-dimethyl-7-oxo-1H-pyrrolo[2,3-c]pyridine-3-carboxylate] | 7.21 | 6.60
4 | Cc1[nH]c2c(=O)n(C)cc(C#CC(C)(C)O)c2c1C(=O)OC(C)c1ccccc1 (centres unmarked) [Example 120, 1-phenylethyl 4-(3-hydroxy-3-methyl-but-1-ynyl)-2,6-dimethyl-7-oxo-1H-pyrrolo[2,3-c]pyridine-3-carboxylate] | 7.08 | 6.59
5 | C=CCCn1cc(C#CC(C)(C)O)c2c(C(=O)OCC)c(C)[nH]c2c1=O [Example 49, ethyl 6-but-3-enyl-4-(3-hydroxy-3-methyl-but-1-ynyl)-2-methyl-7-oxo-1H-pyrrolo[2,3-c]pyridine-3-carboxylate] | 6.94 | 5.55
6 | CCOC(=O)c1c(C)[nH]c2c(=O)n(C)cc(C#CC(O)(CC)c3ccccc3)c12 (centres unmarked) [Example 75, ethyl 4-(3-hydroxy-3-phenyl-pent-1-ynyl)-2,6-dimethyl-7-oxo-1H-pyrrolo[2,3-c]pyridine-3-carboxylate] | 7.12 | 6.37
7 | CCOC(=O)c1c(C)[nH]c2c(=O)n(C)cc(C#CC(O)(c3cccc(N4CCOCC4)c3)C(F)(F)F)c12 (centres unmarked) [Example 208, ethyl 2,6-dimethyl-7-oxo-4-[4,4,4-trifluoro-3-hydroxy-3-(3-morpholinophenyl)but-1-ynyl]-1H-pyrrolo[2,3-c]pyridine-3-carboxylate] | 7.10 | 6.36
8 | CCOC(=O)c1c(C)[nH]c2c(=O)n(C)cc(C#CC3(O)CCOCC3)c12 [Example 88, ethyl 4-[2-(4-hydroxytetrahydropyran-4-yl)ethynyl]-2,6-dimethyl-7-oxo-1H-pyrrolo[2,3-c]pyridine-3-carboxylate] | 7.01 | 5.95
9 | CCOC(=O)c1c(C)[nH]c2c(=O)n(C)cc(C#CC3(O)CCN(C)CC3)c12 [Example 9, ethyl 4-[2-(4-hydroxy-1-methyl-4-piperidyl)ethynyl]-2,6-dimethyl-7-oxo-1H-pyrrolo[2,3-c]pyridine-3-carboxylate] | 6.09 | 4.84
10 | CCOC(=O)c1c(C)[nH]c2c(=O)n(C)cc(C#CC(C)(C)C(=O)NC)c12 [Example 32, ethyl 4-[3,3-dimethyl-4-(methylamino)-4-oxo-but-1-ynyl]-2,6-dimethyl-7-oxo-1H-pyrrolo[2,3-c]pyridine-3-carboxylate] | 5.88 | 6.10

More lines, in order of rising pIC50 [1], values ahead:

Row | pIC50 [1] | pIC50 [2] | Compound
11 | 6.21 | 5.34 | Cc1[nH]c2c(=O)n(C)cc(C#CC(C)(C)O)c2c1C(=O)OCc1ccncc1 [Example 112, 4-pyridylmethyl 4-(3-hydroxy-3-methyl-but-1-ynyl)-2,6-dimethyl-7-oxo-1H-pyrrolo[2,3-c]pyridine-3-carboxylate]
12 | 6.35 | 5.01 | CCOC(=O)c1c(C)[nH]c2c(=O)n(CC)cc(C#CC(C)(C)O)c12 [Example 50, ethyl 6-ethyl-4-(3-hydroxy-3-methyl-but-1-ynyl)-2-methyl-7-oxo-1H-pyrrolo[2,3-c]pyridine-3-carboxylate]
13 | 6.37 | 6.12 | CCOC(=O)c1c(C)[nH]c2c(=O)n(C)cc(C#CC3(O)CCNCC3)c12 [Example 12, ethyl 4-[2-(4-hydroxy-4-piperidyl)ethynyl]-2,6-dimethyl-7-oxo-1H-pyrrolo[2,3-c]pyridine-3-carboxylate]
14 | 6.51 | 5.95 | Cc1[nH]c2c(=O)n(C)cc(C#CC(C)(O)C3CC3)c2c1C1=NC(C(C)C)CO1 (centres unmarked) [Example 203, 4-(3-cyclopropyl-3-hydroxy-but-1-ynyl)-3-(4-isopropyl-4,5-dihydrooxazol-2-yl)-2,6-dimethyl-1H-pyrrolo[2,3-c]pyridin-7-one]
15 | 6.55 | 5.81 | Cc1[nH]c2c(=O)n(C)cc(C#CC(O)(c3ccccc3)C(F)(F)F)c2c1C(=O)OCC(C)C (centres unmarked) [Example 130, isobutyl 2,6-dimethyl-7-oxo-4-(4,4,4-trifluoro-3-hydroxy-3-phenyl-but-1-ynyl)-1H-pyrrolo[2,3-c]pyridine-3-carboxylate]
16 | 6.66 | 6.42 | CCOC(=O)c1c(C)[nH]c2c(=O)n(C)cc(C#CC(C)(C)C(N)=O)c12 [Example 37, ethyl 4-(4-amino-3,3-dimethyl-4-oxo-but-1-ynyl)-2,6-dimethyl-7-oxo-1H-pyrrolo[2,3-c]pyridine-3-carboxylate]
17 | 6.96 | 6.35 | Cc1[nH]c2c(=O)n(C)cc(C#CC(C)(O)C3CC3)c2c1-c1nnc(C(C)(C)O)o1 (centres unmarked) [Example 172, 4-(3-cyclopropyl-3-hydroxy-but-1-ynyl)-3-(5-(1-hydroxy-1-methyl-ethyl)-1,3,4-oxadiazol-2-yl)-2,6-dimethyl-1H-pyrrolo[2,3-c]pyridin-7-one]
18 | 7.22 | 6.66 | CCOC(=O)c1c(C)[nH]c2c(=O)n(C)cc(C#CC(C)(O)c3cccc(F)c3)c12 (centres unmarked) [Example 33, ethyl 4-[3-(3-fluorophenyl)-3-hydroxy-but-1-ynyl]-2,6-dimethyl-7-oxo-1H-pyrrolo[2,3-c]pyridine-3-carboxylate]
19 | 7.35 | 6.70 | CCc1nnc(-c2c(C)[nH]c3c(=O)n(C)cc(C#CC(C)(O)C4CC4)c23)o1 (centres unmarked) [Example 181, 4-(3-cyclopropyl-3-hydroxy-but-1-ynyl)-3-(5-ethyl-1,3,4-oxadiazol-2-yl)-2,6-dimethyl-1H-pyrrolo[2,3-c]pyridin-7-one]
20 | 7.39 | 6.74 | Cc1[nH]c2c(=O)n(C)cc(C#CC(C)(O)C3CC3)c2c1-c1nnc(C2CCOC2)o1 (single isomer, unassigned) [Example 96a, 4-(3-cyclopropyl-3-hydroxy-but-1-ynyl)-2,6-dimethyl-3-(5-tetrahydrofuran-3-yl-1,3,4-oxadiazol-2-yl)-1H-pyrrolo[2,3-c]pyridin-7-one]
21 | 7.47 | 6.97 | Cc1[nH]c2c(=O)n(C)cc(C#CC(C)(O)C3CC3)c2c1-c1nnc(C(C)(C)C)o1 (single isomer, unassigned) [Example 98b, 3-(5-tert-butyl-1,3,4-oxadiazol-2-yl)-4-(3-cyclopropyl-3-hydroxy-but-1-ynyl)-2,6-dimethyl-1H-pyrrolo[2,3-c]pyridin-7-one]
22 | 7.48 | 6.56 | CCOC(=O)c1c(C)[nH]c2c(=O)n(C)cc(C#CC(O)(c3ccccc3)C(F)F)c12 (centres unmarked) [Example 89, ethyl 4-(4,4-difluoro-3-hydroxy-3-phenyl-but-1-ynyl)-2,6-dimethyl-7-oxo-1H-pyrrolo[2,3-c]pyridine-3-carboxylate]
